In assay [1] the target is rat 5-HT7 receptor (Rattus norvegicus (Rat), UniProt P32305). Nature of the assay: r5-HT7 binding assay, competitive radioligand binding with [3H]5-CT. In outline: (§1)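 For antagonism, cells expressing the rat receptor are pretreated with compound (10 min) and stimulated with 100 nM 5-CT (20 min). Lysates are assayed for cAMP by competitive immunoassay. Binding uses [3H]5-CT competition on HEK-293 membranes, giving Ki.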

The target in assay [2] is human SERT (Homo sapiens (Human), UniProt P31645). As to the kind of experiment: human SERT binding assay with [3H]-citalopram on HEK-293 membranes. As to conditions: read-out: hSERT binding Ki.
Sequence of human SERT (P31645 whole entry): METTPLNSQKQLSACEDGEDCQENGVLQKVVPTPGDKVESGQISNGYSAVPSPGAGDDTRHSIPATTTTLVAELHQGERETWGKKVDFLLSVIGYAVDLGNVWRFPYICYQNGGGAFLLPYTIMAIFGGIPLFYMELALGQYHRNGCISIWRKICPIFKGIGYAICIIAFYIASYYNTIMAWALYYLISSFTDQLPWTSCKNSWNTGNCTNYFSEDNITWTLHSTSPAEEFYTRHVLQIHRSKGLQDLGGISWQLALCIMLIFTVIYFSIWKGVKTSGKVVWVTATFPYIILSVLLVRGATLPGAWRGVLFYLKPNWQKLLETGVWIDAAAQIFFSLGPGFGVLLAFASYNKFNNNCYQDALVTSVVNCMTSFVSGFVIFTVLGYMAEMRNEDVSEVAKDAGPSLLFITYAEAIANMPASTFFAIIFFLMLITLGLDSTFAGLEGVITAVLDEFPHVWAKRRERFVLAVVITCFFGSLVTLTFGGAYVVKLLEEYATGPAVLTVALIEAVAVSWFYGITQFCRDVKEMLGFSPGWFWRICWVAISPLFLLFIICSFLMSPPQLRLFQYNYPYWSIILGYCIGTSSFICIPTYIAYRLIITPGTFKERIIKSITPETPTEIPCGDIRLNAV
Assay [3] deals with h5HT2C (Homo sapiens (Human), UniProt P28335). Nature of the assay: h5HT2C binding.
Sequence of h5HT2C (P28335 33-458): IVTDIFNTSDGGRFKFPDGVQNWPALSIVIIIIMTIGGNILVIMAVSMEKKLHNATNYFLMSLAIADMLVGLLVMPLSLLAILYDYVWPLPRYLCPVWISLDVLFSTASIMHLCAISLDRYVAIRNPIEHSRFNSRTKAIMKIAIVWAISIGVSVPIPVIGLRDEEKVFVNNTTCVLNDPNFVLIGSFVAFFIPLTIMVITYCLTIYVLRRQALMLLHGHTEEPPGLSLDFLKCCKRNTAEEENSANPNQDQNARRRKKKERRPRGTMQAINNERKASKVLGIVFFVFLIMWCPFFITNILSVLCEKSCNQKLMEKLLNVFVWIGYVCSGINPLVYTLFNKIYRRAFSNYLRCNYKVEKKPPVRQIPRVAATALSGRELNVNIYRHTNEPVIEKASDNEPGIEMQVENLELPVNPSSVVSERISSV
Assay [4] has as its target h5HT2B (Homo sapiens (Human), UniProt P41595). As to the kind of experiment: h5HT2B binding.
Assay [5] has as its target h5-HT6 (Homo sapiens (Human), UniProt P50406). Nature of the assay: h5-HT6 binding assay with [3H]LSD on HEK-293 membranes. As to conditions: read-out: h5HT6 binding Ki. On the procedure:
Receptor binding was performed using membrane fractions prepared from the HEK-293 cell line recombinantly expressing rat 5-HT7 receptors (NCBI accession NM_022938). Compound affinity for the rat 5-HT7 receptor subtype was evaluated by competitive radioligand binding assays using 5-carboxamido[^3H]tryptamine ([^3H]5-CT) (Amersham Biosciences, cat. 90000403) detection. HitHunter™ cAMP assays are in-vitro based competitive immunoassays. The assay was performed on the HEK-293 cell line stably transfected with r5-HT7 receptor. Cells were pre-incubated with test compounds for 10 minutes. For antagonist testing, the cells were then challenged with 100 nM 5-CT for 20 minutes. Cells were then lysed and cAMP measured according to manufacturers protocol (Amersham, cat. NET791250UC) or [^3H]mesulergine (Amersham, cat. TRK1041). The assay was performed on membranes prepared from HEK-293 cells stably transfected with h5-HT6. Following centrifugation, membranes were resuspended and incubated for 60 min at room temperature with 1.7 nM [^3H]LSD in the presence of increasing concentration of test compounds. Nonspecific binding was defined in the presence of 10 μM clozapine (Tocris, cat. TRK1068). Homogenized HEK-293 membranes expressing the human SERT were incubated in 50 mM Tris-HCl (pH 7.5), 120 mM NaCl, 5 mM KCl with [^3H]-citalopram (3 nM) with or without test compounds. Nonspecific binding was determined in the presence of 10 μM fluoxetine. Radioactivity readouts and Ki values were performed as previously described for r5-HT7. […] Compounds were assayed in their free form or as salts, as indicated in the Examples section above.

Assay [6] has as its target h5HT2A (Homo sapiens (Human), UniProt P28223). As to the kind of experiment: h5HT2A binding.
Assay [7] addresses r5-HT7 receptor (Rattus norvegicus (Rat), UniProt P32305). Nature of the assay: HitHunter cAMP assay, antagonist testing against 100 nM 5-CT. It counts as cell-based. In a few lines: as §1
Background: Changes in cAMP serve as a functional read-out for many G protein-coupled receptors.

[8] abbreviates: rat 5-HT7 receptor, HEK-293 membranes.
[9] abbreviates: h5-HT6, [3H]LSD, HEK-293 membranes.
The mark [10] stands for this setting: antagonist testing, 100 nM 5-CT challenge, HEK-293 r5-HT7, read-out: R5HT7 cAMP pKb (converted).

SMILES strings stand for the structures. Counter-ions that a name gives are not always drawn. Like-named read-outs stand apart in the source and are kept apart here.

Sequence of h5HT2A (P28223 whole entry): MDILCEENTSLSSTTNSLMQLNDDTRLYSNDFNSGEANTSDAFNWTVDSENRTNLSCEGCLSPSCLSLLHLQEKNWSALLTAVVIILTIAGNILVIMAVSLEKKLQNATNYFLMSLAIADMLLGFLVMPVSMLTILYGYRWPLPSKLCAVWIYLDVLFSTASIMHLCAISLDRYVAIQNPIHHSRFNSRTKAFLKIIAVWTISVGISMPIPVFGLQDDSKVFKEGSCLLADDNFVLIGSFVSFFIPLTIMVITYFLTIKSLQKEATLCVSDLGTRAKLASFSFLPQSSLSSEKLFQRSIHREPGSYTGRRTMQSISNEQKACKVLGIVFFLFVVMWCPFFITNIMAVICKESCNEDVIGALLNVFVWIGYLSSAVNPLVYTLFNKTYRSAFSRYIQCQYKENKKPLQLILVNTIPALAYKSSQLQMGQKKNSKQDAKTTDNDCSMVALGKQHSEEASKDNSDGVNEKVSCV
Sequence of h5HT2B (P41595 whole entry): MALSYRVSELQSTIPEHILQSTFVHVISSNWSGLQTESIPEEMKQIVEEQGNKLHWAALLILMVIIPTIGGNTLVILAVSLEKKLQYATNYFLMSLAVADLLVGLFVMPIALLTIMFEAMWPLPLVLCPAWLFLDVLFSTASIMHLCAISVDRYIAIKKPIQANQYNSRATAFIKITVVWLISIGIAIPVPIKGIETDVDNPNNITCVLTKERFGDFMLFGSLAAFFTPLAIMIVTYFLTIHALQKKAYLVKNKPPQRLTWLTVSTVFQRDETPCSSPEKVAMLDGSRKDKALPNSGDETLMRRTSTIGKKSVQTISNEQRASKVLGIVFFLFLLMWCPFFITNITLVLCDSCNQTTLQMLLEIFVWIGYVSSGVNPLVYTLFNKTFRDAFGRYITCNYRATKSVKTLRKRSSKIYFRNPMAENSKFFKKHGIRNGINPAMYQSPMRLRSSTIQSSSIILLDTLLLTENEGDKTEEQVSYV
Sequence of rat 5-HT7 receptor (P32305 1-435): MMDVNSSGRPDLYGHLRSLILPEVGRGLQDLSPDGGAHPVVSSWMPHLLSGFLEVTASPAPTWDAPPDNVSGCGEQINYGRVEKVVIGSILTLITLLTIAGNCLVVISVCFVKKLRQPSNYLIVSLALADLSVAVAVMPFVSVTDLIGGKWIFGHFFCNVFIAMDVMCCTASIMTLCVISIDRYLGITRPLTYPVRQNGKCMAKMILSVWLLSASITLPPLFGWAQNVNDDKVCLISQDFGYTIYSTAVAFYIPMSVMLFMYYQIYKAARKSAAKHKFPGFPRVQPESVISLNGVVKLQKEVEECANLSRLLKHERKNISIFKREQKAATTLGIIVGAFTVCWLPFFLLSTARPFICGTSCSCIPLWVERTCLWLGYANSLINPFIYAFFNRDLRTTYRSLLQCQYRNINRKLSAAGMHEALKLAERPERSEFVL
Sequence of r5-HT7 receptor (P32305 1-435): as above
Sequence of h5-HT6 (P50406 whole entry): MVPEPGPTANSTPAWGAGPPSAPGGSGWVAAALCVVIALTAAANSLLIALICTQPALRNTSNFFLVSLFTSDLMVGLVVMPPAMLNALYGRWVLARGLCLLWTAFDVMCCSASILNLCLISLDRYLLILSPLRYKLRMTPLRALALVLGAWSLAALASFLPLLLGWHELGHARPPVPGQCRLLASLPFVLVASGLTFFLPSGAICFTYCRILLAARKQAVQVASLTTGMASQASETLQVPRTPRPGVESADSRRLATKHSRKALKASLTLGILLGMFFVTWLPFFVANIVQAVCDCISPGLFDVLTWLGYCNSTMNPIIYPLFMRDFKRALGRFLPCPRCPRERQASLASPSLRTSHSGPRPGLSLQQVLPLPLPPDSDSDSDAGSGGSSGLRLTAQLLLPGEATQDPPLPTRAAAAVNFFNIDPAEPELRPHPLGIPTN

For `CC(Oc1ccc(Br)cc1OC1CNC1)c1cccc(Cl)c1` (racemic) [Example 111, (±)-3-[5-Bromo-2-[1-(3-chloro-phenyl)-ethoxy]-phenoxy]-azetidine], the Ki (usually the equilibrium dissociation constant of an inhibitor or competing ligand from its target) turned out to be 0.01 µM in assay [1] (setting [8]); 0.118 µM in assay [2]; 0.331 µM in assay [3]; 0.069 µM in assay [4]; 0.268 µM in assay [5] (setting [9]); 0.073 µM in assay [6].
Regarding `CC(Oc1ccc(Cl)cc1OC1CNC1)c1ccc(C(F)(F)F)o1` (racemic) [Example 146, (±)-3-[5-Chloro-2-[1-(5-trifluoromethyl-furan-2-yl)-ethoxy]-phenoxy]-azetidine], the figures for the inhibition constant Ki in assay [1] (setting [8]), in assay [2] and in assay [5] (setting [9]) were 0.012 µM, 0.059 µM and 0.558 µM, respectively. Also, in assay [7] (setting [10]), the Kb is 0.00794 µM.
On to `CC(Oc1ccc(Cl)cc1OC1CNC1)c1cccc(C(F)(F)F)c1` (stereo in doubt) [Example 101, (S)-3-[5-Chloro-2-[1-(3-trifluoromethyl-phenyl)-ethoxy]-phenoxy]-azetidine], for which the inhibitory constant (Ki) stood at 0.005 µM in assay [1] (setting [8]); 0.152 µM in assay [2]; 0.933 µM in assay [3]; 0.203 µM in assay [4]; 0.746 µM in assay [5] (setting [9]); 0.317 µM in assay [6].
`FC(F)(F)c1ccc(COc2ccc(Br)cc2OC2CNC2)o1` [Example 10, 3-[5-Bromo-2-(5-trifluoromethyl-furan-2-ylmethoxy)-phenoxy]-azetidine]: the values for the Ki in assay [1] (setting [8]), in assay [2] and in assay [5] (setting [9]) were 0.007 µM, 0.039 µM and 0.05 µM, respectively. Also, the Kb in assay [7] (setting [10]) is 0.00631 µM.
Turning to `Clc1ccccc1COc1ccc(Br)cc1OC1CNC1` [Example 15, 3-[5-Bromo-2-(2-chloro-benzyloxy)-phenoxy]-azetidine trifluoroacetate], the Ki in assay [1] (setting [8]) was 0.017 µM; in assay [2], 0.005 µM; in assay [5] (setting [9]), 0.045 µM. Moreover, the Kb in assay [7] (setting [10]) was 0.631 µM.
Take `Fc1cccc(COc2ccc(Br)cc2OC2CNC2)c1` [Example 17, 3-[5-Bromo-2-(3-fluoro-benzyloxy)-phenoxy]-azetidine trifluroacetate]: the inhibition constant (Ki) in assay [1] (setting [8]) turned out to be 0.01 µM; in assay [2], 0.004 µM; in assay [5] (setting [9]) it was 0.039 µM. The Kb in assay [7] (setting [10]) is 0.0501 µM.
For `Clc1cccc(COc2ccc(Cl)cc2OC2CNC2)c1` [Example 37, 3-[5-Chloro-2-(3-chloro-benzyloxy)-phenoxy]-azetidine], the Ki is 0.008 µM in assay [1] (setting [8]), 0.007 µM in assay [2] and 0.089 µM in assay [5] (setting [9]). Besides, in assay [7] (setting [10]), the Kb is 0.126 µM.
For `CN1CC(Oc2cc(Cl)ccc2OCc2cccc(Cl)c2)C1` [Example 38, 3-[5-Chloro-2-(3-chloro-benzyloxy)-phenoxy]-1-methyl-azetidine] the same measures were 0.006 µM, 0.1 µM, 0.036 µM and 0.01 µM.
Taken in the same sequence, the figures for `FC(F)(F)c1ccc(COc2ccc(Cl)cc2OC2CNC2)o1` [Example 54, 3-[5-Chloro-2-(5-trifluoromethyl-furan-2-ylmethoxy)-phenoxy]-azetidine] were 0.006 µM, 0.028 µM, 0.077 µM and 0.00794 µM.
As to `CN1CC[C@@H](Oc2cc(Cl)ccc2OCc2cccc(Cl)c2)C1` [Example 59, (R)-3-[5-Chloro-2-(3-chloro-benzyloxy)-phenoxy]-1-methyl-pyrrolidine], the Ki in assay [1] (setting [8]) was 0.027 µM; in assay [2], 0.353 µM; in assay [5] (setting [9]), 0.084 µM. For the same molecule, the Kb in assay [7] (setting [10]) was 0.0158 µM.
Taken in the same sequence, the figures for `Clc1cccc(COc2ccc(Br)cc2OC2CCNCC2)c1` [Example 65, 4-[5-Bromo-2-(3-chloro-benzyloxy)-phenoxy]-piperidine] were 0.011 µM, 0.014 µM, 0.041 µM and 0.126 µM.
For the molecule `Clc1ccc(OCC2CCCCC2)c(OC2CNC2)c1` [Example 73, 3-(5-Chloro-2-cyclohexylmethoxy-phenoxy)-azetidine trifluoroacetate], the figures for the inhibition constant Ki in assay [1] (setting [8]) and in assay [5] (setting [9]) were 0.023 µM and 0.012 µM, respectively. The Kb in assay [7] is 0.251 µM.
`C[C@@H](Oc1ccc(Br)cc1OC1CNC1)c1cccc(C(F)(F)F)c1` [Example 113, (R)-3-[5-Bromo-2-[1-(3-trifluoromethyl-phenyl)-ethoxy]-phenoxy]-azetidine]: the inhibitory constant (Ki) is 0.011 µM in assay [1] (setting [8]); 0.49 µM in assay [3]; 0.122 µM in assay [4]; 0.496 µM in assay [5] (setting [9]); 0.206 µM in assay [6].
For the molecule `C[C@@H](Oc1ccc(Cl)cc1OC1CCNCC1)c1cccc(C(F)(F)F)c1` [Example 135, (R)-4-[5-Chloro-2-[1-(3-trifluoromethyl-phenyl)-ethoxy]-phenoxy]-piperidine], the inhibition constant (Ki) was 0.015 µM in assay [1] (setting [8]); 0.096 µM in assay [2]; 0.755 µM in assay [3]; 0.027 µM in assay [4]; 1.28 µM in assay [5] (setting [9]); 0.14 µM in assay [6].
Turning to `FC(F)(F)c1ccc2c(c1)C(Oc1ccc(Cl)cc1OC1CNC1)CC2` (stereo not drawn) [Example 160, 3-[5-Chloro-2-(6-trifluoromethyl-indan-1-yloxy)-phenoxy]-azetidine], the Ki in assay [1] (setting [8]) is 0.015 µM; in assay [2], 0.21 µM; in assay [3] it was 0.146 µM; in assay [4], 0.025 µM; in assay [6] it was 0.005 µM. Further, the Kb in assay [7] (setting [10]) is 0.00501 µM.
As for `COc1ccc2c(c1)CC(Oc1ccc(Cl)cc1OC1CNC1)C2` (stereo not drawn) [Example 177, 3-[5-Chloro-2-(5-methoxy-indan-2-yloxy)-phenoxy]-azetidine], the inhibitory constant (Ki) in assay [1] (setting [8]) is 0.012 µM; in assay [2], 0.262 µM; in assay [3] it was 0.14 µM; in assay [4], 0.056 µM; in assay [5] (setting [9]), 0.123 µM; in assay [6], 0.035 µM.
With `FC(F)(COc1ccc(Cl)cc1OC1CNC1)c1ccccc1` [Example 184, 3-[5-Chloro-2-(2,2-difluoro-2-phenyl-ethoxy)-phenoxy]-azetidine], the Ki in assay [1] (setting [8]) was determined as 0.023 µM; in assay [2], 0.124 µM; in assay [3] it was 0.038 µM; in assay [4], 0.012 µM; in assay [6], 0.005 µM. The Kb in assay [7] (setting [10]) is 0.0501 µM.
In the case of `Clc1cccc(CCOc2ccc(Cl)cc2OC2CNC2)c1` [Example 185, 3-[5-Chloro-2-[2-(3-chloro-phenyl)-ethoxy]-phenoxy]-azetidine], the inhibitory constant (Ki) in assay [1] (setting [8]) was 0.006 µM; in assay [2], 0.029 µM; in assay [3], 0.091 µM; in assay [4], 0.007 µM; in assay [5] (setting [9]) it was 0.177 µM; in assay [6], 0.008 µM.
Consider `Clc1ccc(OCCc2ccccc2)c(OC2CNC2)c1` [Example 186], for which the Ki in assay [1] (setting [8]) is 0.005 µM; in assay [2], 0.053 µM; in assay [3], 0.079 µM; in assay [4], 0.008 µM; in assay [5] (setting [9]) it was 0.033 µM; in assay [6], 0.014 µM.
Turning to `FC(F)(F)c1ccc(OCc2ccc(C(F)(F)F)o2)c(OC2CNC2)c1` [Example 199, 3-[5-Trifluoromethyl-2-(5-trifluoromethyl-furan-2-ylmethoxy)-phenoxy]-azetidine], the inhibition constant Ki in assay [1] (setting [8]) was found to be 0.018 µM; in assay [2], 0.128 µM; in assay [3], 0.526 µM; in assay [4], 1.22 µM; in assay [6] it was 0.103 µM. The Kb in assay [7] (setting [10]) was 0.0398 µM.
With `FC(F)(F)c1ccc(OCc2ccccc2)c(OC2CNC2)c1` [Example 201, hydrochloride], the inhibitory constant (Ki) in assay [1] (setting [8]) stood at 0.031 µM; in assay [2], 0.056 µM; in assay [3] it was 0.498 µM; in assay [4], 0.184 µM; in assay [6], 0.067 µM. The Kb in assay [7] (setting [10]) is 0.0501 µM.
In the case of `Brc1ccc(Oc2ccccc2)c(OC2CNC2)c1` [Example 244, 3-(5-Bromo-2-phenoxy-phenoxy)-azetidine], the Ki in assay [1] (rat 5-HT7, HEK-293 membranes) worked out at 0.02 µM; in assay [2], 5 µM; in assay [5] (h5-HT6, HEK-293 membranes, [3H]LSD), 0.046 µM. Besides, the Kb in assay [7] (setting [10]) was 0.251 µM.

The values above are taken from patent publication US9981909B2 (Janssen Pharmaceutica NV, priority 2008, dated 2018).
